# Reference: the OPERA property sets (Mansouri et al. 2018)
# Details: for log10 BCF / log10 biotransformation half-life (days): fish
Compound,boiling point [°C],melting point [°C],other results
CCSC#N,146,-85.5,
CCCCc1ccc(O)cc1,248,22,log10 vapour pressure (mmHg): -2.65
O=CCCc1ccccc1,224,,
COC(=O)c1ccc(O)c(OC)c1,286,64,
CC1(O)CCC(C(C)(C)O)CC1 (stereo unspecified),,158,
Cc1nc(C)c(Cl)c(O)c1Cl,,320,
Clc1ccnc2ccccc12,262,34.5,
CCCCCCCCCCCCN1CCCCCC1=O,,-7,
Cc1ccc(C(N)=O)cc1,,162,log10 Koc (L/kg): 1.78
OCC(O)CN1CCN(c2ccccc2)CC1 (stereo unspecified),,105,
CCNc1nc(Cl)nc(NC(C)(C)C#N)n1,,168,log10 Koc (L/kg): 2.28; log10 vapour pressure (mmHg): -6.86
CCOC(=O)C(C(=O)OCC)C(=O)OCC,253,29,
O=[N+]([O-])c1ccc2c(c1)NCC2,,68,
C1CCC2CCCCC2C1 (stereo unspecified),180,-38.7,log10 Koc (L/kg): 3.67; log10 vapour pressure (mmHg): 0.114; ready biodegradability: not readily biodegradable; log10 BCF: 3.25
C=CC1(C)OC(=O)N(c2cc(Cl)cc(Cl)c2)C1=O (stereo unspecified),,108,log10 Koc (L/kg): 2.7; log10 vapour pressure (mmHg): -6.92
CC(=O)Oc1ccccc1C(=O)OC(=O)c1ccccc1OC(C)=O,,83,
O=Cc1ccc([N+](=O)[O-])o1,228,35.5,ready biodegradability: readily biodegradable
Nc1cccc(Cl)c1,230,-10.4,log10 Henry constant (atm·m³/mol): -6; log10 vapour pressure (mmHg): -1.18; ready biodegradability: not readily biodegradable; log10 BCF: 0.35; log10 biotransformation half-life (days): -0.71
CC1COC(Cn2cncn2)(c2ccc(Oc3ccc(Cl)cc3)cc2Cl)O1 (stereo unspecified),,76,log10 vapour pressure (mmHg): -9.6
O=C(O)C(Br)(Br)Br,,132,log10 Henry constant (atm·m³/mol): -8.48
C[Si](Cl)(Cl)CCl,122,,
CC(C)CC1CCCC1,148,-115,

Compound,boiling point [°C],melting point [°C],other results
CCCCCC(=O)OC(=O)CCCCC,,-41,
CC1=C(C)C(=O)C=CC1=O,,55,
Oc1nc2ccccc2s1,360,139,
CCOC(=O)C(C)(C)C,118,-89.5,log10 vapour pressure (mmHg): 1.25
COc1nc(C)nc(NC(=O)NS(=O)(=O)c2ccccc2OCCCl)n1,,186,log10 Koc (L/kg): 2.02
CCCOC(=O)C(=O)OCCC,211,-44.3,
CC1=CCC(C(=O)O)C1(C)C (stereo unspecified),242,40.5,
C=CC=C,-4.4,-109,log10 vapour pressure (mmHg): 3.32
CCCCCC(=O)OCCC(C)C,226,,
CC(C)CCC[C@H](C)O,174,-105,
Nc1ccc(C2(c3ccc(N)cc3)OC(=O)c3ccccc32)cc1,,203,
CCCCCCCCCCCC(=O)OC,267,5.2,log10 vapour pressure (mmHg): -2.39; ready biodegradability: readily biodegradable
Oc1cccc(Br)c1,236,33,ready biodegradability: not readily biodegradable; log10 BCF: 1.18; log10 biotransformation half-life (days): -0.95
CCCCCCCCC=CCCCCCCCC(=O)OCCCC,,,ready biodegradability: readily biodegradable
OCCNCCNCCO,,97.5,
Cc1cccc(C=O)c1,199,,
N#CCCN,185,,log10 vapour pressure (mmHg): -0.0655
CC(C1CC1)C(O)(Cn1cncn1)c1ccc(Cl)cc1 (stereo unspecified),,108,log10 vapour pressure (mmHg): -6.59
C[C@]12CCC(=O)C=C1CC[C@@H]1[C@@H]2C(=O)C[C@@]2(C)[C@H]1CC[C@]2(O)[C@H](O)CO,,208,
O=[N+]([O-])c1ccc(SCl)c([N+](=O)[O-])c1,,99,
Brc1cccc(Br)c1Oc1ccccc1,,,log10 Koa: 8.12
C#CCCCC,71.3,-132,log10 vapour pressure (mmHg): 2.12

Compound,boiling point [°C],melting point [°C],other results
CC(=O)c1ccc(Cl)s1,,52,
CN(C)CCCN1c2ccccc2CCc2ccc(Cl)cc21,,190,
CCCCCCCCc1ccc(O)cc1,,,ready biodegradability: not readily biodegradable
CCC(N)=O,213,81.3,log10 vapour pressure (mmHg): -1.42
CCCCCCCCOC(=O)CCCCCC,290,-22.5,
FC(F)=C(F)C(F)=C(F)F,6,-132,
CC(CN1c2ccccc2Sc2ccccc21)N(C)C.Cl (stereo unspecified),,228,
COc1c(C(C)(C)C)cc([N+](=O)[O-])c(C)c1[N+](=O)[O-],,85,
Cc1cc(C)cc(Br)c1,204,,
Clc1ccc(Cl)c2c(Cl)cccc12,,,log10 Koa: 7.56
CCCCCCCCCCCCCCCCCCCCC,356,40.5,log10 biodegradation half-life (days): 1.4; log10 vapour pressure (mmHg): -4.06; ready biodegradability: readily biodegradable
CO[C@H]1C=CO[C@@]2(C)Oc3c(C)c(O)c4c(O)c(cc(O)c4c3C2=O)NC(=O)C(C)=CC=C[C@H](C)[C@H](O)[C@@H](C)[C@@H](O)[C@@H](C)[C@H](OC(C)=O)[C@@H]1C,,300,
CC(=O)OC(OC(C)=O)c1ccc([N+](=O)[O-])o1,,91,
COCCC(C)C,91,,
Cc1cccc(N(C)C(=S)Oc2ccc3c(c2)C2CCC3C2)c1 (stereo unspecified),,93,
O=C(Cc1ccccc1)c1ccccc1,320,60,log10 vapour pressure (mmHg): -3.74
C=C(CC)CCCC,120,,log10 vapour pressure (mmHg): 1.29
O=C(c1ccccc1)c1cccnc1,307,38,
Clc1cccc2cc3ccccc3cc12,,83.5,
O=[N+]([O-])c1ccc(CCO)cc1,,63,
OCc1ccccc1I,,92,
CCCCCON=O,104,,log10 vapour pressure (mmHg): 0.598

Compound,boiling point [°C],melting point [°C],other results
Cc1cc(Sc2cc(C)c(O)c(C(C)(C)C)c2)cc(C(C)(C)C)c1O,,126,
CC(=O)O[C@]1(C(C)=O)CC[C@H]2[C@@H]3C=C(Cl)C4=CC(=O)CC[C@]4(C)[C@H]3CC[C@@]21C,,213,
Clc1ccc(Cl)c(-c2ccc(Cl)c(Cl)c2Cl)c1,,,log10 Henry constant (atm·m³/mol): -4.13; log10 Koc (L/kg): 4.62; log10 vapour pressure (mmHg): -4.77; log10 BCF: 5.38; log10 biotransformation half-life (days): 2.31
COC(=O)C1CC(=O)N(C)C1 (stereo unspecified),,15,
Clc1cccnc1,148,,
CCOP(=S)(OCC)O/N=C(\C#N)c1ccccc1,,6.1,log10 vapour pressure (mmHg): -4.8; ready biodegradability: not readily biodegradable; log10 BCF: 2.91
C=C[Si](C)(C)OCC,99,,
CCOP(=O)(SC(C)CC)SC(C)CC (stereo unspecified),,,log10 vapour pressure (mmHg): -3.05
C#C[C@]1(O)CC[C@H]2[C@@H]3CCC4=CC(=O)CC[C@@H]4[C@H]3CC[C@@]21C,,204,
COc1ccc([C@@H]2CC(=O)c3c(O)cc(O)cc3O2)cc1O,,228,
O=C(O)c1cccc(-c2ccccc2)c1O,,186,
CC1(C)C=Cc2c(ccc3c2OC2c4ccc(O)cc4OCC32)O1 (stereo unspecified),,178,
COc1c2c(cc3c1OCO3)CCN(C)C2,,56,
O=C(O)COc1ccccc1C(=O)O,,191,
CNP(=O)(NC)Oc1ccccc1,,102,log10 Koc (L/kg): 1.51
CC=C[C@H](O)CCCC,175,,
Brc1cc(Br)c(Oc2c(Br)c(Br)c(Br)c(Br)c2Br)c(Br)c1,,,log10 BCF: 5.75
O=[N+]([O-])c1cccc2cnccc12,,110,
C=CCCC(C)C,85.3,,
CC1CC1(C)C (stereo unspecified),54,-138,
O=S1(=O)CCOCC1,,132,
